Data set [1] deals with T1, Xanthine dehydrogenase/oxidase (Bos taurus, UniProt P80457). Put plainly: Inhibition of bovine milk xanthine-oxidase using xanthine as substrate after 5 mins by spectrophotometric method.
Data set [2] deals with T1, Xanthine dehydrogenase/oxidase. The experiment in a line: Mixed-type inhibition of bovine milk xanthine oxidase assessed as enzyme-inhibitor complex using varying levels of xanthine as substrate by Line-weaver burk plot analysis.
Data set [3] shares this target. The experiment in a line: Mixed-type inhibition of bovine milk xanthine oxidase assessed as enzyme-substrate-inhibitor complex using varying levels of xanthine as substrate by Line-weaver burk plot analysis.
For data set [4] the target is unchanged. The experiment in a line: Inhibition of bovine milk xanthine-oxidase up to 10 uM using xanthine as substrate after 5 mins by spectrophotometric method. Particulars: cattle; call rule not given here.

T1 sequence (P80457 whole entry): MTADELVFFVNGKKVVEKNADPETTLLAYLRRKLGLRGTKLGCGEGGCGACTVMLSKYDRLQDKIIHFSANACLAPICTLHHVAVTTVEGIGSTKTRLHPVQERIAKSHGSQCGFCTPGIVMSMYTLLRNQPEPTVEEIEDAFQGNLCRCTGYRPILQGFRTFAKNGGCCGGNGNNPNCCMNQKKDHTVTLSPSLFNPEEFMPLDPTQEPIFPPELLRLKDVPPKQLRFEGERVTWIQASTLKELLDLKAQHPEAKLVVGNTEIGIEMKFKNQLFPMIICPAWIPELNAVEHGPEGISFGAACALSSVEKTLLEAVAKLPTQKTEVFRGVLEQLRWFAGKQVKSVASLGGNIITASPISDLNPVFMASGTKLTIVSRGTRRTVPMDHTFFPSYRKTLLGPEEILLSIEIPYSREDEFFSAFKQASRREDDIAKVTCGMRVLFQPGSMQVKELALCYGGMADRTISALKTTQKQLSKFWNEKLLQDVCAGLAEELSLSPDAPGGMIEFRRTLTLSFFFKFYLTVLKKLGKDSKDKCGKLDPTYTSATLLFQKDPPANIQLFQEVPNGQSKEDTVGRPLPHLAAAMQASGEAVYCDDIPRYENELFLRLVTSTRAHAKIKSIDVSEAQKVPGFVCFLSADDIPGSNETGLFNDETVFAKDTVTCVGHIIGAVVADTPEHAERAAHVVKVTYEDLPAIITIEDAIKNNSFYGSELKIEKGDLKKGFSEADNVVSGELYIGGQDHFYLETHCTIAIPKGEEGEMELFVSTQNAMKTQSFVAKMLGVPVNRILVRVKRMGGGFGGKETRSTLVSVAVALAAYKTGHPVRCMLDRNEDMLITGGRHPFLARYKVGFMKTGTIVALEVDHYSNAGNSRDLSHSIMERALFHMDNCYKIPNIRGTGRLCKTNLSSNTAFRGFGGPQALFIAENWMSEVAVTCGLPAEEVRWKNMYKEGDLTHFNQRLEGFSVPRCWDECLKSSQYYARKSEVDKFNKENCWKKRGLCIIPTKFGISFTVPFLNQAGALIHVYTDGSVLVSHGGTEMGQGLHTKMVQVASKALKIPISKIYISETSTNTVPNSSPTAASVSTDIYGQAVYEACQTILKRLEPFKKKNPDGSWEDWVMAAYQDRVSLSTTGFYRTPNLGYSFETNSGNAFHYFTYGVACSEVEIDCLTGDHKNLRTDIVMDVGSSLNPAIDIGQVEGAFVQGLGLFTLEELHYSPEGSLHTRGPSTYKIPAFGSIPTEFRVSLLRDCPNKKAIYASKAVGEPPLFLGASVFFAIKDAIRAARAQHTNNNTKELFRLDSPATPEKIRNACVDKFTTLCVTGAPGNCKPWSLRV

As usually defined, the IC50 is the concentration needed to halve the response being measured. Read a high IC50 as weaker potency in that assay. Consider `Cc1ccc(C)c(COc2ccc3c(c2)O/C(=C\c2ccc(C(=O)O)cc2)C3=O)c1`, for which the midpoint of inhibition in data set [1], the IC50, lay at 62 nM. Same read-out and setting: then `O=C(O)c1ccc(/C=C2\Oc3cc(O)ccc3C2=O)cc1`, with 68 nM. Usually Ki stands for the equilibrium dissociation constant of an inhibitor or competing ligand from its target. For the compound `COc1ccc(/C=C2\Oc3cc(OCC(=O)O)ccc3C2=O)c(OC)c1`, the values for the Ki in data set [2] and in data set [3] were 2.9 nM and 34.3 nM, respectively. In data set [1], this compound registered an IC50 of 1270 nM.

Compound `O=C(O)c1ccc(/C=C2\Oc3cc(OCc4cccc5ccccc45)ccc3C2=O)cc1` showed an IC50 in data set [1] of 69 nM.

As for `COc1ccc2c(c1)O/C(=C\c1ccc(C(=O)O)cc1)C2=O`, in data set [1], 80 nM corresponded to half-maximal inhibition (IC50). Same read-out and setting: then `O=C(O)c1ccc(/C=C2\Oc3cc(OCc4ccccc4)ccc3C2=O)cc1`, with 61 nM.

For `O=C(O)COc1ccc2c(c1)O/C(=C\c1ccccc1Cl)C2=O`, in data set [1], half-maximal inhibition (IC50) was put at 1230 nM. The same measure, in the same setting: as for `COc1ccccc1/C=C1\Oc2cc(OCC(=O)O)ccc2C1=O`, the figure is 1300 nM. In the case of `C=C(C)COc1ccc2c(c1)O/C(=C\c1ccc(C(=O)O)cc1)C2=O`, the Ki in data set [2] was 128 nM; in data set [3], 1200 nM. The compound also displayed an IC50 in data set [1] of 46 nM. Moreover, the “inhibition (INH)” value in data set [1] (cattle, 5 min) is “Dose-dependent effect”. `CC(Oc1ccc2c(c1)O/C(=C\c1ccccc1Cl)C2=O)C(=O)O` (stereo unspecified): in data set [4], the “inhibition (INH)” value is recorded as “Not Active”. Consider `COC(=O)COc1ccc2c(c1)O/C(=C\c1ccccc1)C2=O`, for which, in data set [4], the “inhibition (INH)” value was “Not Active”. In data set [1], `O=C(O)COc1ccc2c(c1)O/C(=C\c1ccccc1C(=O)O)C2=O` returned an IC50 of 3840 nM. Take `O=C(O)COc1ccc2c(c1)O/C(=C\c1ccccc1)C2=O`: in data set [1], the IC50 is 4470 nM.

The compound `O=C(O)COc1ccc2c(c1)O/C(=C\c1ccc(C(=O)O)cc1)C2=O` showed an IC50 in data set [1] of 150 nM. On the same count and under the same terms, then `COc1ccc(/C=C2\Oc3cc(OCC(=O)O)ccc3C2=O)cc1`, with 1570 nM; and `O=C1/C(=C/c2ccc(O)c(O)c2)Oc2cc(O)ccc21` [SULFURETIN], with 3100 nM.

The values are drawn from ChEMBL document CHEMBL4033722, “Carboxylated aurone derivatives as potent inhibitors of xanthine oxidase” (Bioorg Med Chem, 2017).
